Experiment in all cases: NCI anticancer screen, dose series, 48 h
Test [1] has as its system COLO 205.
Test [2] relates to NCI-H460.
In test [3] the test system is SK-MEL-28.
The subject of test [4] is SF-268.
For test [5], the system named is RPMI-8226.
Test [6] concerns SNB-75.
Test [7] has as its system UACC-62.
The test system of test [8] is SK-OV-3.
The test system of test [9] is SNB-19.
Test [10] deals with HCC 2998.
The test system of test [11] is Malme-3M.
In test [12] the test system is TK-10.
Test [13] relates to HCT-116.
Test [14] concerns MOLT-4.
Test [15] has as its system A498.
The test system of test [16] is OVCAR-4.
For test [17], the system named is A549.

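Results reflect a 48-hour exposure of cells in 96-well plates to compound at five concentrations. The concentration for 50% growth inhibition is given as GI50.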 The source made the active and inactive calls. Cut-off read from the data, not from the text of the source: active = GI50 up to about 1.1 µM and inactive = higher.

`CCN(CC)C(=S)S` [DITIOCARB SODIUM]: the GI50 in [1] is 0.0713 µM (active); in test [2] it was 0.373 µM (active); in [3], > 47.9 µM (inactive); in test [4], > 79.1 µM (inactive); in [5] it was 0.528 µM (active); in [6], 0.261 µM (active). The GI50 in test [7] is 0.388 µM (active); in [8] it was > 100 µM (inactive); in [9], > 100 µM (inactive); in [10], 33.6 µM (inactive); in test [11], 19.1 µM (inactive); in test [12] it was > 100 µM (inactive). The GI50 in [13] is 0.0323 µM (active).

Turning to `CC1CC[C@@]23CCC4(C)[C@@](C=CC5[C@@]6(C)CCC(=O)C(C)(C)C6CC[C@]54C)(OC2=O)[C@@H]3[C@H]1C` (some centres undefined), the GI50 in [1] was 13.7 µM (inactive); in test [2], 13.2 µM (inactive); in test [3], 20.4 µM (inactive); in test [4], 50.4 µM (inactive); in [14] it was 7.29 µM (inactive); in test [6], 23.6 µM (inactive). Moreover, the GI50 in test [7] was 12.2 µM (inactive); in [15], 20.6 µM (inactive); in [8], 27.9 µM (inactive); in test [9], 29.8 µM (inactive); in [11], 20.9 µM (inactive); in test [12] it was 22.4 µM (inactive). The GI50 in test [13] is 6.68 µM (inactive); in test [16], 29.4 µM (inactive); in test [17], 6.93 µM (inactive).

As for `CN(C)/C=N/c1nc2ncn(CCOC(=O)c3ccccc3)c2c(=O)[nH]1`, the GI50 in test [1], in test [2], in test [3], in test [4], in test [5] and in [6] was > 100 µM (inactive) each time. Moreover, the GI50 in test [7], in test [15], in test [8], in test [11], in [12] and in [13] was > 100 µM (inactive) throughout. Further, the GI50 in [16] and in [17] was > 100 µM (inactive) each time.

Consider `COc1cccc(/C=C/c2cc(OC)c(OC)c(OC)c2)c1`, for which the GI50 in test [1] is 34.4 µM (inactive); in test [2], 43.4 µM (inactive); in test [3], 38.5 µM (inactive); in test [4] it was 68.9 µM (inactive); in test [14], 36.6 µM (inactive); in test [5], 34 µM (inactive). Further, the GI50 in [6] was 18.5 µM (inactive); in test [7], 25.4 µM (inactive); in test [15] it was 57 µM (inactive); in test [8], 38.2 µM (inactive); in [9], 42.9 µM (inactive); in test [10], > 100 µM (inactive). For the same compound, the GI50 in test [11] is 34.8 µM (inactive); in [13], 33 µM (inactive); in test [17], 42.3 µM (inactive).

In the case of `C[N+]1=C(c2cccnc2/C=N/O)OCC1(C)C`, the GI50 in [1], in test [2], in test [3], in [4], in test [14] and in test [6] was > 100 µM (inactive) in each case. Further, the GI50 in [7], in test [15], in test [8], in [9], in [10] and in [11] was > 100 µM (inactive) each time. For the same compound, the GI50 in [12], in test [13], in [16] and in [17] was > 100 µM (inactive) in each case.

Regarding `COc1ccc(CCC2c3cc(OC)c(OC)cc3CCN2C)cc1OC` (centres undefined), the GI50 in test [1], in test [2], in test [3], in test [4], in test [14] and in test [5] was > 100 µM (inactive) throughout. The GI50 in [6], in test [7], in test [8], in test [9], in test [10] and in test [11] was > 100 µM (inactive) each time. Moreover, the GI50 in test [12], in test [13], in [16] and in test [17] was > 100 µM (inactive) each time.

`COc1ccc(C2c3cc(OC)c(OC)cc3C(Cc3ccc([N+](=O)[O-])cc3)C2c2ccc([N+](=O)[O-])cc2)cc1OC` (centres undefined): the GI50 in test [1], in test [2], in [3], in test [4], in test [14] and in test [5] was > 100 µM (inactive) throughout. Also, the GI50 in test [6] was 49.7 µM (inactive); in test [7], > 100 µM (inactive); in test [15], > 100 µM (inactive); in test [9], > 100 µM (inactive); in test [10] it was > 100 µM (inactive); in test [11], > 100 µM (inactive). Also, the GI50 in test [12] is > 100 µM (inactive); in [13] it was 14 µM (inactive); in test [16], > 100 µM (inactive); in test [17] it was > 100 µM (inactive).

On to `COc1ccc2[nH]c3c(c2c1)[C@H](c1ccccc1)C[C@@H]1C(=O)N(c2ccccc2)C(=O)[C@H]31`, for which the GI50 in test [1] was > 100 µM (inactive); in test [2], 22.4 µM (inactive); in test [3], > 100 µM (inactive); in [4], > 100 µM (inactive); in test [14] it was 15.1 µM (inactive); in [6], 20.7 µM (inactive). Besides, the GI50 in test [7] is > 100 µM (inactive); in [15], 21.4 µM (inactive); in test [8], 23.3 µM (inactive); in [9], 29.2 µM (inactive); in [10], 35.5 µM (inactive); in [11], 45.5 µM (inactive). For the same compound, the GI50 in test [12] is 33.7 µM (inactive); in test [13], 4.95 µM (inactive); in [16], 16.7 µM (inactive); in [17], 13.3 µM (inactive).

Consider `CC(/C(=N\Nc1ccccc1)c1ccc(O)cc1)C1C(=O)Oc2ccccc21` (centres undefined), for which the GI50 is > 100 µM (inactive) in test [1]; > 100 µM (inactive) in test [2]; > 100 µM (inactive) in [14]; > 100 µM (inactive) in test [5]; 55.7 µM (inactive) in test [6]; > 100 µM (inactive) in test [7]. The GI50 in test [15], in test [9], in [10], in test [11], in test [12] and in [13] was > 100 µM (inactive) in each case. Besides, the GI50 in test [16] and in [17] was > 100 µM (inactive) each time.

For `Cc1ccc(NC(=O)CC2SC(=N)NC2=O)cc1C` (centres undefined), the GI50 in [1], in test [2], in test [3], in test [4], in test [14] and in test [5] was > 100 µM (inactive) throughout. The GI50 in test [6] was > 100 µM (inactive); in test [7] it was > 100 µM (inactive); in [8], > 100 µM (inactive); in test [9] it was > 100 µM (inactive); in test [10] it was 75 µM (inactive); in test [11] it was > 100 µM (inactive). Moreover, the GI50 in test [12], in test [13], in test [16] and in test [17] was > 100 µM (inactive) in each case.

As to `CN1Cc2c(nc(-c3ccc(Br)cc3)c[n+]2[O-])N(C)C1`, the GI50 in test [1], in test [2], in test [3], in test [4], in [14] and in [6] was > 100 µM (inactive) throughout. The GI50 in test [15], in [8], in [9], in [11], in test [13] and in test [16] was > 100 µM (inactive) each time. Besides, the GI50 in test [17] is > 100 µM (inactive).

For the compound `CC(=O)NC(C=O)C(O[C@H](C)C(=O)NC(C)C(=O)NC(CCC(N)=O)C(=O)OCc1ccccc1)C(O)C(O)COC(=O)CCNc1c2ccccc2nc2cccc([N+](=O)[O-])c12` (some centres undefined), the GI50 was 1.29 µM (inactive) in test [1]; 1.73 µM (inactive) in test [2]; 3.19 µM (inactive) in test [3]; 1.79 µM (inactive) in test [4]; 3.57 µM (inactive) in test [14]; 1.63 µM (inactive) in test [5]. The GI50 in test [6] was 3.97 µM (inactive); in test [7] it was 3.23 µM (inactive); in test [15], > 100 µM (inactive); in test [9] it was 4.49 µM (inactive); in test [10], 1.54 µM (inactive); in test [11], 2.15 µM (inactive). Moreover, the GI50 was 13.6 µM (inactive) in test [12], 1.37 µM (inactive) in [13], 12.2 µM (inactive) in test [16] and 2.23 µM (inactive) in test [17].

Turning to `O=C(CO[N+](=O)[O-])OC/C=C/c1ccccc1`, the GI50 in test [1], in [2], in test [4], in [14], in test [5] and in [6] was > 100 µM (inactive) each time. The GI50 in test [7] is > 10 µM (inactive); in test [8] it was > 100 µM (inactive); in [9], > 100 µM (inactive); in test [10], > 100 µM (inactive); in test [11], > 100 µM (inactive); in test [12], > 100 µM (inactive). Further, the GI50 in test [13] and in test [17] was > 100 µM (inactive) in each case.
